Data taken from patent publication US20220175768A1, “FGFR TYROSINE KINASE INHIBITORS FOR THE TREATMENT OF UROTHELIAL CARCINOMA” (Janssen Pharmaceutica NV, priority 2019, published 2022).

Conditions: 6 mg continuous, regimen 2 (n = 78)
Method: Study treatment was administered on 28-day cycles. Prior to interim analysis 1, there were 2 treatment regimens. Patients were randomized 1:1 to 28-day cycles to the following 2 regimens until a regimen was selected for further study: Regimen 1 (10 mg once daily intermittent (7 days on/7 days); Regimen 2 (6 mg once daily continuous). Randomization was stratified according to performance status (0 to 1 vs. 2), hemoglobin value (<10 vs. ≥10 g per dl), FGFR alteration type (mutation vs. fusion), prior treatment status (chemotherapy-resistant vs. chemotherapy naïve), and disease distribution (presence or absence of visceral [liver, lung, bone] metastases). Starting dose selection was based on phase 1 efficacy and tolerability.
Thus, after interim analysis, this became a single-arm study. […] Treatment continued until disease progression or unacceptable adverse event(s) per investigator.
All objective responses required confirmation by an additional investigator assessment within 4 to 6 weeks of first assessment. Disease evaluations for regimen 3 were also performed by an independent radiographic review committee. […] Safety was evaluated based on clinical laboratory tests, physical exams, electrocardiograms, and ophthalmology examinations. Adverse events and abnormalities were assessed by investigator and graded per NCI CTCAE v.4.0
Prophylactic measures were taken to minimize risk of common adverse events related to FGFR inhibition. To reduce risk of hyperphosphatemia, a low-phosphate diet was recommended for all patients (600 to 800 mg of dietary phosphate intake per day). To reduce the risk of skin effects, the application of alcohol-free emollient moisturizing cream and avoidance of unnecessary exposure to sunlight, soap, perfumed products, and hot baths was recommended. Patients were asked to keep their fingers and toes clean and nails trimmed to reduce risk of nail effects.
Additional ophthalmology examinations were performed if clinically indicated.

In the case of COc1cc(OC)cc(N(CCNC(C)C)c2ccc3ncc(-c4cnn(C)c4)nc3c2)c1 [erdafitinib, N-(3,5-dimethoxy-phenyl)-N′-(1-methylethyl)-N-[3-(1-methyl-1H-pyrazol-4-yl)quinoxalin-6-yl]ethane-1,2-diamine], the “Patients with Abdominal pain, Any grade” value is reported as 14 (18) no. (%), the “Patients with Abdominal pain, Grade 1” value is reported as 7 (9) no. (%) and the “Patients with Abdominal pain, Grade 2” value is reported as 5 (6) no. (%). For the same compound, the “Patients with Abdominal pain, Grade ≥3” value was 2 (3) no. (%), the “Patients with Alanine aminotransferase increased, Any grade” value was 9 (12) no. (%) and the “Patients with Alanine aminotransferase increased, Grade 1” value was 7 (9) no. (%). The “Patients with Alanine aminotransferase increased, Grade 2” value was 2 (3) no. (%), the “Patients with Alanine aminotransferase increased, Grade ≥3” value was 0 no. (%) and the “Patients with Alopecia, Any grade” value was 10 (13) no. (%). The “Patients with Alopecia, Grade 1” value was 9 (12) no. (%), the “Patients with Alopecia, Grade 2” value was 1 (1) no. (%) and the “Patients with Alopecia, Grade ≥3” value was 0 no. (%). The “Patients with Anemia, Any grade” value was 13 (17) no. (%), the “Patients with Anemia, Grade 1” value was 0 no. (%) and the “Patients with Anemia, Grade 2” value was 8 (10) no. (%). The “Patients with Anemia, Grade ≥3” value was 5 (6) no. (%), the “Patients with Arthralgia, Any grade” value was 8 (10) no. (%) and the “Patients with Arthralgia, Grade 1” value was 5 (6) no. (%). For the same compound, the “Patients with Arthralgia, Grade 2” value was 2 (3) no. (%), the “Patients with Arthralgia, Grade ≥3” value was 1 (1) no. (%) and the “Patients with Aspartate aminotransferase increased, Any grade” value was 9 (12) no. (%). For the same compound, the “Patients with Aspartate aminotransferase increased, Grade 1” value was 7 (9) no. (%), the “Patients with Aspartate aminotransferase increased, Grade 2” value was 2 (3) no. (%) and the “Patients with Aspartate aminotransferase increased, Grade ≥3” value was 0 no. (%). The “Patients with Asthenia, Any grade” value was 18 (23) no. (%), the “Patients with Asthenia, Grade 1” value was 5 (6) no. (%) and the “Patients with Asthenia, Grade 2” value was 4 (5) no. (%). The “Patients with Asthenia, Grade ≥3” value was 9 (12) no. (%), the “Patients with Back pain, Any grade” value was 11 (14) no. (%) and the “Patients with Back pain, Grade 1” value was 6 (8) no. (%). For the same compound, the “Patients with Back pain, Grade 2” value was 3 (4) no. (%), the “Patients with Back pain, Grade ≥3” value was 2 (3) no. (%) and the “Patients with Blood creatinine increased, Any grade” value was 6 (8) no. (%). The “Patients with Blood creatinine increased, Grade 1” value was 3 (4) no. (%), the “Patients with Blood creatinine increased, Grade 2” value was 3 (4) no. (%) and the “Patients with Blood creatinine increased, Grade ≥3” value was 0 no. (%). For the same compound, the “Patients with Conjunctivitis, Any grade” value was 7 (9) no. (%), the “Patients with Conjunctivitis, Grade 1” value was 4 (5) no. (%) and the “Patients with Conjunctivitis, Grade 2” value was 2 (3) no. (%). The “Patients with Conjunctivitis, Grade ≥3” value was 1 (1) no. (%), the “Patients with Constipation, Any grade” value was 20 (26) no. (%) and the “Patients with Constipation, Grade 1” value was 10 (13) no. (%). The “Patients with Constipation, Grade 2” value was 10 (13) no. (%), the “Patients with Constipation, Grade ≥3” value was 0 no. (%) and the “Patients with Decreased appetite, Any grade” value was 29 (37) no. (%). For the same compound, the “Patients with Decreased appetite, Grade 1” value was 12 (15) no. (%), the “Patients with Decreased appetite, Grade 2” value was 13 (17) no. (%) and the “Patients with Decreased appetite, Grade ≥3” value was 4 (5) no. (%). The “Patients with Diarrhea, Any grade” value was 39 (50) no. (%), the “Patients with Diarrhea, Grade 1” value was 24 (31) no. (%) and the “Patients with Diarrhea, Grade 2” value was 15 (19) no. (%). The “Patients with Diarrhea, Grade ≥3” value was 0 no. (%), the “Patients with Dry eye, Any grade” value was 6 (8) no. (%) and the “Patients with Dry eye, Grade 1” value was 3 (4) no. (%). The “Patients with Dry eye, Grade 2” value was 2 (3) no. (%), the “Patients with Dry eye, Grade ≥3” value was 1 (1) no. (%) and the “Patients with Dry mouth, Any grade” value was 31 (40) no. (%). For the same compound, the “Patients with Dry mouth, Grade 1” value was 23 (30) no. (%), the “Patients with Dry mouth, Grade 2” value was 6 (8) no. (%) and the “Patients with Dry mouth, Grade ≥3” value was 2 (3) no. (%). The “Patients with Dry skin, Any grade” value was 18 (23) no. (%), the “Patients with Dry skin, Grade 1” value was 10 (13) no. (%) and the “Patients with Dry skin, Grade 2” value was 8 (10) no. (%). The “Patients with Dry skin, Grade ≥3” value was 0 no. (%), the “Patients with Dysgeusia, Any grade” value was 10 (13) no. (%) and the “Patients with Dysgeusia, Grade 1” value was 6 (8) no. (%). The “Patients with Dysgeusia, Grade 2” value was 4 (5) no. (%), the “Patients with Dysgeusia, Grade ≥3” value was 0 no. (%) and the “Patients with Dyspepsia, Any grade” value was 9 (12) no. (%). The “Patients with Dyspepsia, Grade 1” value was 6 (8) no. (%), the “Patients with Dyspepsia, Grade 2” value was 3 (4) no. (%) and the “Patients with Dyspepsia, Grade ≥3” value was 0 no. (%). The “Patients with Dyspnea, Any grade” value was 6 (7) no. (%), the “Patients with Dyspnea, Grade 1” value was 1 (1) no. (%) and the “Patients with Dyspnea, Grade 2” value was 3 (4) no. (%). For the same compound, the “Patients with Dyspnea, Grade ≥3” value was 2 (3) no. (%), the “Patients with Fatigue, Any grade” value was 20 (26) no. (%) and the “Patients with Fatigue, Grade 1” value was 8 (10) no. (%). The “Patients with Fatigue, Grade 2” value was 8 (10) no. (%), the “Patients with Fatigue, Grade ≥3” value was 4 (5) no. (%) and the “Patients with Hand-foot syndrome, Any grade” value was 13 (17) no. (%). The “Patients with Hand-foot syndrome, Grade 1” value was 4 (5) no. (%), the “Patients with Hand-foot syndrome, Grade 2” value was 9 (12) no. (%) and the “Patients with Hand-foot syndrome, Grade ≥3” value was 0 no. (%). For the same compound, the “Patients with Hematuria, Any grade” value was 6 (8) no. (%), the “Patients with Hematuria, Grade 1” value was 5 (6) no. (%) and the “Patients with Hematuria, Grade 2” value was 0 no. (%). The “Patients with Hematuria, Grade ≥3” value was 1 (1) no. (%), the “Patients with Hyperphosphatemia, Any grade” value was 52 (67) no. (%) and the “Patients with Hyperphosphatemia, Grade 1” value was 44 (56) no. (%). For the same compound, the “Patients with Hyperphosphatemia, Grade 2” value was 8 (10) no. (%), the “Patients with Hyperphosphatemia, Grade ≥3” value was 0 no. (%) and the “Patients with Hypomagnesemia, Any grade” value was 6 (8) no. (%). The “Patients with Hypomagnesemia, Grade 1” value was 6 (8) no. (%), the “Patients with Hypomagnesemia, Grade 2” value was 0 no. (%) and the “Patients with Hypomagnesemia, Grade ≥3” value was 0 no. (%). For the same compound, the “Patients with Hyponatremia, Any grade” value was 7 (9) no. (%), the “Patients with Hyponatremia, Grade 1” value was 2 (3) no. (%) and the “Patients with Hyponatremia, Grade 2” value was 0 no. (%). For the same compound, the “Patients with Hyponatremia, Grade ≥3” value was 5 (6) no. (%), the “Patients with Insomnia, Any grade” value was 8 (10) no. (%) and the “Patients with Insomnia, Grade 1” value was 4 (5) no. (%). For the same compound, the “Patients with Insomnia, Grade 2” value was 2 (3) no. (%), the “Patients with Insomnia, Grade ≥3” value was 2 (3) no. (%) and the “Patients with Lacrimation increased, Any grade” value was 13 (17) no. (%). For the same compound, the “Patients with Lacrimation increased, Grade 1” value was 10 (13) no. (%), the “Patients with Lacrimation increased, Grade 2” value was 3 (4) no. (%) and the “Patients with Lacrimation increased, Grade ≥3” value was 0 no. (%). The “Patients with Nail dystrophy, Any grade” value was 7 (9) no. (%), the “Patients with Nail dystrophy, Grade 1” value was 6 (8) no. (%) and the “Patients with Nail dystrophy, Grade 2” value was 1 (1) no. (%). For the same compound, the “Patients with Nail dystrophy, Grade ≥3” value was 0 no. (%), the “Patients with Nausea, Any grade” value was 16 (21) no. (%) and the “Patients with Nausea, Grade 1” value was 11 (14) no. (%). The “Patients with Nausea, Grade 2” value was 4 (5) no. (%), the “Patients with Nausea, Grade ≥3” value was 1 (1) no. (%) and the “Patients with Onycholysis, Any grade” value was 13 (17) no. (%). The “Patients with Onycholysis, Grade 1” value was 2 (3) no. (%), the “Patients with Onycholysis, Grade 2” value was 6 (8) no. (%) and the “Patients with Onycholysis, Grade ≥3” value was 5 (6) no. (%). For the same compound, the “Patients with Onychomadesis, Any grade” value was 8 (10) no. (%), the “Patients with Onychomadesis, Grade 1” value was 2 (3) no. (%) and the “Patients with Onychomadesis, Grade 2” value was 6 (8) no. (%). The “Patients with Onychomadesis, Grade ≥3” value was 0 no. (%), the “Patients with Oropharyngeal pain, Any grade” value was 8 (10) no. (%) and the “Patients with Oropharyngeal pain, Grade 1” value was 5 (6) no. (%). The “Patients with Oropharyngeal pain, Grade 2” value was 3 (4) no. (%), the “Patients with Oropharyngeal pain, Grade ≥3” value was 0 no. (%) and the “Patients with Pain in extremity, Any grade” value was 9 (12) no. (%). The “Patients with Pain in extremity, Grade 1” value was 2 (3) no. (%), the “Patients with Pain in extremity, Grade 2” value was 6 (8) no. (%) and the “Patients with Pain in extremity, Grade ≥3” value was 1 (1) no. (%). The “Patients with Paronychia, Any grade” value was 12 (15) no. (%), the “Patients with Paronychia, Grade 1” value was 2 (3) no. (%) and the “Patients with Paronychia, Grade 2” value was 10 (13) no. (%). The “Patients with Paronychia, Grade ≥3” value was 0 no. (%), the “Patients with Peripheral edema, Any grade” value was 6 (8) no. (%) and the “Patients with Peripheral edema, Grade 1” value was 2 (3) no. (%). The “Patients with Peripheral edema, Grade 2” value was 3 (4) no. (%), the “Patients with Peripheral edema, Grade ≥3” value was 1 (1) no. (%) and the “Patients with Pyrexia, Any grade” value was 14 (18) no. (%). For the same compound, the “Patients with Pyrexia, Grade 1” value was 8 (10) no. (%), the “Patients with Pyrexia, Grade 2” value was 3 (4) no. (%) and the “Patients with Pyrexia, Grade ≥3” value was 3 (4) no. (%). For the same compound, the “Patients with Retinal detachment, Any grade” value was 8 (10) no. (%), the “Patients with Retinal detachment, Grade 1” value was 5 (6) no. (%) and the “Patients with Retinal detachment, Grade 2” value was 3 (4) no. (%). For the same compound, the “Patients with Retinal detachment, Grade ≥3” value was 0 no. (%), the “Patients with Stomatitis, Any grade” value was 33 (42) no. (%) and the “Patients with Stomatitis, Grade 1” value was 13 (17) no. (%). The “Patients with Stomatitis, Grade 2” value was 13 (17) no. (%), the “Patients with Stomatitis, Grade ≥3” value was 7 (9) no. (%) and the “Patients with Urinary tract infection, Any grade” value was 13 (17) no. (%). The “Patients with Urinary tract infection, Grade 1” value was 0 no. (%), the “Patients with Urinary tract infection, Grade 2” value was 9 (12) no. (%) and the “Patients with Urinary tract infection, Grade ≥3” value was 4 (5) no. (%). The “Patients with Vision blurred, Any grade” value was 5 (6) no. (%), the “Patients with Vision blurred, Grade 1” value was 3 (4) no. (%) and the “Patients with Vision blurred, Grade 2” value was 1 (1) no. (%). The “Patients with Vision blurred, Grade ≥3” value was 1 (1) no. (%), the “Patients with Vomiting, Any grade” value was 11 (14) no. (%) and the “Patients with Vomiting, Grade 1” value was 9 (12) no. (%). For the same compound, the “Patients with Vomiting, Grade 2” value was 2 (3) no. (%), the “Patients with Vomiting, Grade ≥3” value was 0 no. (%) and the “Patients with Weight decreased, Any grade” value was 8 (10) no. (%). The “Patients with Weight decreased, Grade 1” value was 4 (5) no. (%), the “Patients with Weight decreased, Grade 2” value was 2 (3) no. (%) and the “Patients with Weight decreased, Grade ≥3” value was 2 (3) no. (%). For the same compound, the “Treatment-related adverse event: Alopecia, Any grade” value was 8 (10) no. (%), the “Treatment-related adverse event: Alopecia, Grade 1” value was 8 (10) no. (%) and the “Treatment-related adverse event: Alopecia, Grade 2” value was 0 no. (%). For the same compound, the “Treatment-related adverse event: Alopecia, Grade ≥3” value was 0 no. (%).
